In ChEMBL document CHEMBL1649421, “New drug-like hydroxyphenylnaphthol steroidomimetics as potent and selective 17β-hydroxysteroid dehydrogenase type 1 inhibitors for the treatment of estrogen-dependent diseases” (J Med Chem, 2011):

Columns and labels:
[1] = biological target: T1, Estrogen receptor (Homo sapiens) (UniProt P03372); assay: Displacement of [3H]E2 from human recombinant ERalpha by liquid scintillation counting relative to estradiol
T1 sequence (whole entry): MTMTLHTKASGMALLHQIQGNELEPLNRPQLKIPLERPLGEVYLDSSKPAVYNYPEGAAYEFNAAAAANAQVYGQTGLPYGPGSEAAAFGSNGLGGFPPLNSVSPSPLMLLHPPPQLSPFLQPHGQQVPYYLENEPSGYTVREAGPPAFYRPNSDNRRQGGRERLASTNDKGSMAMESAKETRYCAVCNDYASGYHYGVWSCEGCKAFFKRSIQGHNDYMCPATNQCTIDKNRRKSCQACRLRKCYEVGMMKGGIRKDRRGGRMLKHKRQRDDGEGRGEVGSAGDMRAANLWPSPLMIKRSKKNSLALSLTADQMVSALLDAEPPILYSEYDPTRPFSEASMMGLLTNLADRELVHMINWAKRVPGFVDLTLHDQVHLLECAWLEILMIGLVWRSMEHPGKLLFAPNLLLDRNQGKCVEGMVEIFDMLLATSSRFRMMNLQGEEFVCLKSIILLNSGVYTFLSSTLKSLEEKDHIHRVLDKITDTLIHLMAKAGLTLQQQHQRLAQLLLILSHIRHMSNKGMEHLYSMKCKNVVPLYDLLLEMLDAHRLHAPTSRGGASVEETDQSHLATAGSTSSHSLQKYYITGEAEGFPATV

[2] = biological target: T2, 17-beta-hydroxysteroid dehydrogenase type 1 (Homo sapiens, UniProt P14061); assay: Displacement of [3H]E1 from human placental 17beta-HSD1 after 10 mins by fluid scintillation counting
T2 sequence (P14061 whole entry): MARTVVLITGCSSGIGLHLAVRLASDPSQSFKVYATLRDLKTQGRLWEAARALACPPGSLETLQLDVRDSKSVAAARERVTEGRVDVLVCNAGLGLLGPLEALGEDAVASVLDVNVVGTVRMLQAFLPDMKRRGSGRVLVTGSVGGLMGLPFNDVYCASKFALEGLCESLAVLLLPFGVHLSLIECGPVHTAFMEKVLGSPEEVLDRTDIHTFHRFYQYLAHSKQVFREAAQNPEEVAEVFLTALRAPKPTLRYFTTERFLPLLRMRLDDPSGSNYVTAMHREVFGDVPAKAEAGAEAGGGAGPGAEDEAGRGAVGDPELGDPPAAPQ

Homo sapiens = species on record: Homo sapiens; assay: Selectivity ratio of IC50 for human placental 17beta-HSD2 to IC50 for human placental 17beta-HSD1
Liver microsomes [3] = assay: Intrinsic clearance in Sprague-Dawley rat liver microsomes after 60 mins by LC-MS/MS analysis; format: ADME, Microsome; settings: 1 h
[4] = Half life in Sprague-Dawley rat liver microsomes by LC-MS/MS analysis; format: ADME, Microsome
Cytochrome P450 1A2 = biological target: T3, Cytochrome P450 1A2 (Homo sapiens, UniProt P05177); assay: Inhibition of human CYP1A2; format: ADME
T3 sequence (P05177 whole entry): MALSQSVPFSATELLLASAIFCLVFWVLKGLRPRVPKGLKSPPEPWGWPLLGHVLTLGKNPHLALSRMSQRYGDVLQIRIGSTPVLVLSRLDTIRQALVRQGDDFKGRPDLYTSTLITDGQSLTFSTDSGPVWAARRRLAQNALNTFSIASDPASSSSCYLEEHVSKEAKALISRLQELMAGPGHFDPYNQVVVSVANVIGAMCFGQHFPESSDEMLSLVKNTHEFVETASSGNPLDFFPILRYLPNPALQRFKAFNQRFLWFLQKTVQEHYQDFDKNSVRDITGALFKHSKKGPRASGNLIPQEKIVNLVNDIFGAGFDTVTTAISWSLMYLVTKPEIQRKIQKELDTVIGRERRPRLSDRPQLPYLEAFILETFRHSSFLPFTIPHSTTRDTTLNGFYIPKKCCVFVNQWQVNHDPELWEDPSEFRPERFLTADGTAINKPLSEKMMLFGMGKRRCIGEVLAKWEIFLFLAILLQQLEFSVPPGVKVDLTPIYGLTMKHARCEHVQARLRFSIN

[5] = biological target: T4, 17-beta-hydroxysteroid dehydrogenase type 2 (Homo sapiens) (UniProt P37059); assay: Inhibition of [3H]E2 binding to human recombinant 17beta-HSD2 expressed in baculovirus-infected Sf9 cells at 100 nM after 10 mins by fluid scintillation counting
T4 sequence (whole entry): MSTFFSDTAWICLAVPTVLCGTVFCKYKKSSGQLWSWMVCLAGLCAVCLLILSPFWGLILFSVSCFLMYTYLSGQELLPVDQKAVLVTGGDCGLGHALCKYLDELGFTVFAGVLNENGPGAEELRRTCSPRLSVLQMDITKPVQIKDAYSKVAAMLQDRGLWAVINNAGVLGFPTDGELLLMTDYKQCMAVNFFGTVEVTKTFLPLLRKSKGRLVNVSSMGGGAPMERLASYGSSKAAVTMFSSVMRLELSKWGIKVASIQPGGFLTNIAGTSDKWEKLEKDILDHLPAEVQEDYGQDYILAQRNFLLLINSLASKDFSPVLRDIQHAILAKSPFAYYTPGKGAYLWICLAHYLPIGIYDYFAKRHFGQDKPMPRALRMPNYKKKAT

[6] = biological target: T5, 17-beta-hydroxysteroid dehydrogenase type 1 (Homo sapiens) (UniProt P14061); assay: Inhibition of [3H]E1 binding to human recombinant 17beta-HSD1 expressed in baculovirus-infected Sf9 cells at 1 uM after 10 mins by fluid scintillation counting
T5 sequence (whole entry): T2 sequence (P14061 whole entry)

[7] = biological target: T4, 17-beta-hydroxysteroid dehydrogenase type 2 (Homo sapiens); assay: Inhibition of [3H]E2 binding to human recombinant 17beta-HSD2 expressed in baculovirus-infected Sf9 cells at 1 uM after 10 mins by fluid scintillation counting
[8] = biological target: T6, 17-beta-hydroxysteroid dehydrogenase type 2 (Homo sapiens, UniProt P37059); assay: Displacement of [3H]E2 from human placental 17beta-HSD2 after 10 mins by fluid scintillation counting
T6 sequence (P37059 whole entry): T4 sequence (whole entry)

[9] = biological target: Estrogen receptor beta (Homo sapiens) (UniProt Q92731); assay: Displacement of [3H]E2 from human recombinant ERbeta by liquid scintillation counting relative to estradiol
Sequence of Estrogen receptor beta (Homo sapiens) (Q92731 whole entry): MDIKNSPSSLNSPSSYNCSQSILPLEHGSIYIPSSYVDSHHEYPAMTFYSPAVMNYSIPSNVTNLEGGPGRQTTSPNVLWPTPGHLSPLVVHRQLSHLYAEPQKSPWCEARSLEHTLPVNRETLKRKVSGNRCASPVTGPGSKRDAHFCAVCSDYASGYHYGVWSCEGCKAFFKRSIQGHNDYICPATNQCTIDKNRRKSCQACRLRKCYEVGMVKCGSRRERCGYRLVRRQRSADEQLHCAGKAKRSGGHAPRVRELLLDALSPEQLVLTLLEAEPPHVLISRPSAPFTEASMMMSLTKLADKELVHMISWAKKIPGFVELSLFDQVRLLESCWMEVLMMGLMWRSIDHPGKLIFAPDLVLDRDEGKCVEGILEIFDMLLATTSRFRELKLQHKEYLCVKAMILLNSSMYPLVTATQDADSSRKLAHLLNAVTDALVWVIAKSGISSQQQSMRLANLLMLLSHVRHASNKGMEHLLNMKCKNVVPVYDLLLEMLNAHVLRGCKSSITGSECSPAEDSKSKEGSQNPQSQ

[10] = Tmax in Wistar rat at 50 mg/kg, po administered as single dose by LC-MS/MS analysis; format: ADME, organism-based; set-up: dose 50 mg/kg, route oral; settings: in vivo
[11] = Half life in Wistar rat at 50 mg/kg, po administered as single dose by LC-MS/MS analysis; format: ADME, organism-based; set-up: dose 50 mg/kg, route oral; settings: in vivo
Rattus norvegicus [12] = assay: Clast in Wistar rat at 50 mg/kg, po administered as single dose by LC-MS/MS analysis; format: ADME, organism-based; set-up: dose 50 mg/kg, route oral; settings: in vivo
Rattus norvegicus [13] = assay: Tlast in Wistar rat at 50 mg/kg, po administered as single dose by LC-MS/MS analysis; format: ADME, organism-based; set-up: dose 50 mg/kg, route oral; settings: in vivo
[14] = AUC (0 to t) in Wistar rat at 50 mg/kg, po administered as single dose by LC-MS/MS analysis; format: ADME, organism-based; set-up: dose 50 mg/kg, route oral; settings: plasma
[15] = biological target: T5, 17-beta-hydroxysteroid dehydrogenase type 1 (Homo sapiens); assay: Inhibition of [3H]E1 binding to human recombinant 17beta-HSD1 expressed in baculovirus-infected Sf9 cells at 100 nM after 10 mins by fluid scintillation counting
[16] = biological target: T2, 17-beta-hydroxysteroid dehydrogenase type 1; assay: Displacement of [3H]E1 from 17beta-HSD1 in human T47D cells after 10 mins by fluid scintillation counting; format: cell-based
[17] = Cmax in Wistar rat at 50 mg/kg, po administered as single dose by LC-MS/MS analysis; format: ADME, organism-based; set-up: dose 50 mg/kg, route oral; settings: in vivo
[18] = Apparent permeability across human Caco2 cells after 180 mins by LC-MS/MS analysis; format: ADME, cell-based; settings: Caco-2
Liver microsomes [19] = assay: Metabolic stability in human liver microsomes up to 45 mins by LC-MS/MS analysis; format: ADME, Microsome; settings: 0.75 h

| SMILES | RBA [1] [%] | IC50 [2] [nM] | Ratio IC50 (Homo sapiens) | inhibition [5] [%] | inhibition [6] [%] | inhibition [7] [%] | RBA [9] [%] | inhibition [15] [%] | IC50 [16] [nM] | Papp at 3 h [18] [×10⁻⁶ cm/s] | also measured |
| --- | --- | --- | --- | --- | --- | --- | --- | --- | --- | --- | --- |
| Oc1cccc(-c2ccc3c(-c4cccnc4)c(O)ccc3c2)c1 | 0.01 | 26 | 45 | 66 | 92 | 90 | 0.01 | 87 | 165 | 14 | CL (Liver microsomes [3]): 340 µL/min; half-life [4]: 0.233 h; IC50 (Cytochrome P450 1A2): 10 nM; IC50 [8]: 1160 nM; Tmax [10]: 2 h; half-life [11]: 1.5 h; Cz (Rattus norvegicus [12]): 18 ng/mL; tz (Rattus norvegicus [13]): 8 h; AUC(0-t) [14]: 203 ng·h/mL; Cmax [17]: 16 ng/mL |
| CS(=O)(=O)Nc1cccc(-c2c(O)ccc3cc(-c4cccc(O)c4)ccc23)c1 | 0.01 | 15 | 27 | 31 | 91 | 71 | < 0.01 | 88 | 71 | 19 | Stability (Liver microsomes [19]): Stable |
